Data from US20200030269A1, “ANIMAL FEED COMPOSITIONS OF ABSCISIC ACID” (Valent BioSciences LLC, priority 2010, published 2020).
“And” between values parts separate entries of the source, which are not always exact repeats. Equal entries are not always repeated.

Tests used:
Assay type in all cases: in vivo
Male Cobb 500 chickens [1] = experiment: Example 1 broiler feeding study: cumulative bird mortality after 42 days
Protocol: (§1) Male Cobb 500 chickens were fed different levels of S-ABA supplemented into starter, grower, and finisher feed diets for their entire 42 day commercial life cycle. On day 43, samples of chickens (sometimes referred to as “birds”) from each treatment were processed.
(§2) The starter, grower, and finisher basal diets represented standard commercial broiler diets. The starter and grower diets contained Salinomycin (a coccidiostat) at 40 grams/ton. The basal diets and final treatment diets were prepared using a 500 or 4,000 pound capacity vertical mixer or a 14,000 pound capacity horizontal mixer. After correcting for percent purity of S-ABA in the S-ABA dry powder, S-ABA was added to the basal diets at concentrations of 5, 50, or 500 ppm (4.6, 46, or 455 grams of S-ABA/ton). Control treatments included (1) commercial diet only and (2) commercial diet supplemented with antibiotics (bacitracin methylene disalicylate (BMD), and STAFAC® virginiamycin (hereinafter “Stafac”). STAFAC is a registered trademark of Phibro Animal Health Corporation). All feed diets were pelleted at ˜65° C. or below.
(§3) A 90-pen test facility was divided into 10 blocks containing 9 pens per block. Treatments were assigned to the pens using a complete randomized block design. Birds were assigned to the pens randomly. Specific treatment groups were as follows:
(§4) Starting on study day 0, any bird found dead or needing to be removed and sacrificed was weighed and necropsied. The probable cause of death and necropsy findings were recorded.

Male Cobb 500 chickens [2] = experiment: Example 1 broiler feeding study: bird weights and feed conversion ratios; settings: for Adjusted Feed/Gain Ratio, mean / Bird Weight, mean / Feed/Gain Ratio, mean: 5 ppm S-ABA in feed, dirty litter
Protocol: as §1, §2, §3
Feed was provided ad libitum throughout the study via one handing, ˜17-inch diameter tube feeder per pen. Chick feeder trays were placed in each pen for approximately the first 4 days. Feed added and removed from pens was weighed and recorded from day 0 to day 42. Diet changes were conducted at the same time for all pens. The feeding period for each diet was as shown below:
Birds were weighed by pen at 0, 7, 14, 21, 28, 35, and 42 days of age. The feed remaining in each pen was weighed and recorded on study day 0, 7, 14, 21, 28, 35, and 42 days of age. The feed intake during days 0-7, 0-14, 0-21, 0-28, 0-35, and 0-42 was calculated.
Performance data was summarized by average weight per bird at each body weights measurement period. The average feed conversion was calculated for each respective body weight period using the total feed consumption in a pen divided by the total weight of surviving birds (i.e. days 0-7, 0-14, 0-21, etc.). Adjusted feed conversion was calculated using the total feed consumption in a pen divided by the total weight of surviving birds and weight of birds that died or were removed from that pen.

Male Cobb 500 chickens [3] = experiment: Example 1 broiler feeding study: digestive tract weights at processing on day 43; settings: for Digestive Tract Weights, Mean Weight: dirty litter, day 43
Protocol: as §1, §2, §3
Four blocks (9 pens/block) were selected at random from each treatment. On day 42 all birds in the selected blocks were individually wing banded with a unique number. Prior to processing the birds were fasted for approximately 12 hours. Immediately after processing on day 43, digestive tract weights and Bursa of Fabricius organ weights were measured.

[4] = system: Male and female Cobb 500 chickens; experiment: Example 2 broiler feeding study: cumulative bird mortality after 42 days
Protocol: Male and female Cobb 500 chickens were fed different levels of S-ABA supplemented into starter, grower, and finisher feed diets for their entire 42 days commercial life cycle.
The starter, grower, and finisher basal diets represented standard commercial broiler diets. The starter and grower diets contained Salinomycin (a coccidiostat) at 40 grams/ton. The basal diets and final treatment diets were prepared using a 500 or 4,000 pound capacity vertical mixer or a 14,000 pound capacity horizontal mixer. After correcting for percent purity of S-ABA in the S-ABA dry powder, S-ABA was added to the basal diets at concentrations of 2.5, 5.0, or 7.5 ppm (2.3, 4.6, or 6.8 grams of S-ABA/ton). Control treatments included (1) commercial diet only and (2) commercial diet supplemented with antibiotics (bacitracin methylene disalicylate and Stafac). All feed diets were pelleted at ˜65° C. or below.
A 108-pen test facility was divided into 18 blocks containing 6 pens per block. Treatments were assigned to the pens using a complete randomized block design. Birds were assigned to the pens randomly. Specific treatment groups were as follows:
as §4

[5] = commercial feed diet plus 5 ppm S-ABA, dirty litter, 42 days
[6] = 5 ppm S-ABA in commercial feed diet versus control 1

Compound: CC1=CC(=O)CC(C)(C)[C@@]1(O)/C=C/C(C)=C\C(=O)O [S-ABA, (S)-(+)-abscisic acid]
- bird mortality compared to the control treatments (Male Cobb 500 chickens [1]; 5 ppm S-ABA in commercial feed diets, versus control 1 and BMD/Stafac control 2): significantly (P=0.05) lower bird mortality
- Cumulative Bird Mortality After 42 Days: Died (Male Cobb 500 chickens [1]; [5]): 0
- Cumulative Bird Mortality After 42 Days: Lived (Male Cobb 500 chickens [1]; [5]): 200
- bird growth (weights) compared to the commercial feed diet (control 1) (Male Cobb 500 chickens [2]; 5 ppm S-ABA in commercial feed): increased bird growth (weights)
- lowering of adjusted feed conversion ratios (corrected for number of surviving birds) (Male Cobb 500 chickens [2]; [6]): 1-2 points
- reduction of feed conversion ratios (Male Cobb 500 chickens [2]; [6]): 1-4 points
- Adjusted Feed/Gain Ratio, mean (Male Cobb 500 chickens [2]; Day 7): 1.4093
- Bird Weight, mean (Male Cobb 500 chickens [2]; Day 7): 0.1445 kg
- Feed/Gain Ratio, mean (Male Cobb 500 chickens [2]; Day 7): 1.4093
- Adjusted Feed/Gain Ratio, mean (Male Cobb 500 chickens [2]; Day 14): 1.2854
- Bird Weight, mean (Male Cobb 500 chickens [2]; Day 14): 0.3873 kg
- Feed/Gain Ratio, mean (Male Cobb 500 chickens [2]; Day 14): 1.3400
- Adjusted Feed/Gain Ratio, mean (Male Cobb 500 chickens [2]; Day 21): 1.3842
- Bird Weight, mean (Male Cobb 500 chickens [2]; Day 21): 0.7899 kg
- Feed/Gain Ratio, mean (Male Cobb 500 chickens [2]; Day 21): 1.4137
- Adjusted Feed/Gain Ratio, mean (Male Cobb 500 chickens [2]; Day 28): 1.4517
- Bird Weight, mean (Male Cobb 500 chickens [2]; Day 28): 1.4236 kg
- Feed/Gain Ratio, mean (Male Cobb 500 chickens [2]; Day 28): 1.4584
- Adjusted Feed/Gain Ratio, mean (Male Cobb 500 chickens [2]; Day 35): 1.5610
- Bird Weight, mean (Male Cobb 500 chickens [2]; Day 35): 2.0919 kg
- Feed/Gain Ratio, mean (Male Cobb 500 chickens [2]; Day 35): 1.5731
- Adjusted Feed/Gain Ratio, mean (Male Cobb 500 chickens [2]; Day 42): 1.6691
- Bird Weight, mean (Male Cobb 500 chickens [2]; Day 42): 2.7565 kg
- Feed/Gain Ratio, mean (Male Cobb 500 chickens [2]; Day 42): 1.6861
- weight of digestive tracts compared to the commercial feed diets (control 1 and control 2) (Male Cobb 500 chickens [3]; S-ABA in the feed diet): increases the weight of digestive tracts
- Digestive Tract Weights, Mean Weight (Male Cobb 500 chickens [3]; commercial feed diet plus 5 ppm S-ABA): 86.7 Grams
- Digestive Tract Weights, Mean Weight (Male Cobb 500 chickens [3]; commercial feed diet plus 50 ppm S-ABA): 86.6 Grams
- Digestive Tract Weights, Mean Weight (Male Cobb 500 chickens [3]; commercial feed diet plus 500 ppm S-ABA): 88.4 Grams
- survival rates compared to the commercial feed diet containing bacitracin methylene disalicylate and Stafac ([4]; ABA added to commercial feed diets, 42 days): higher survival rates
- Cumulative Bird Mortality After 42 Days: Mortality ([4]; S-ABA 2.5 ppm in feed, Female, dirty litter): 2.4%
- Cumulative Bird Mortality After 42 Days: Mortality ([4]; S-ABA 2.5 ppm in feed, Male, dirty litter): 4.1%
- Cumulative Bird Mortality After 42 Days: Mortality ([4]; S-ABA 5.0 ppm in feed, Female, dirty litter (two treatment groups)): 0.4% and 1.9%
- Cumulative Bird Mortality After 42 Days: Mortality ([4]; S-ABA 5.0 ppm in feed, Male, dirty litter (two treatment groups)): 2.9% and 3.5%
- Cumulative Bird Mortality After 42 Days: Mortality ([4]; S-ABA 7.5 ppm in feed, Female, dirty litter): 2.2%
- Cumulative Bird Mortality After 42 Days: Mortality ([4]; S-ABA 7.5 ppm in feed, Male, dirty litter): 3.8%
